Assays:
[1] = test system: tympanic membrane (TM) cells; experiment: Confocal imaging of immunolabeled phage within the tympanic membrane after one-hour application to the external TM surface in vivo; set-up: species or system Sprague Dawley rats
Description: Rodent cocktail (2.0 mg/kg xylazine and 40.0 mg/kg ketamine i.m.) was employed for anesthesia. The ME bulla was exposed via a ventral midline neck incision. A 25 g needle was used to make a small opening in the bullar bone, through which 5 × 10^4 CFUs of nontypeable Haemophilus influenzae (NTHi) type 3655 [20] was injected, in 50 μL of BHI media using a 30 g needle. Care was taken to avoid damaging the tympanic membrane, ossicles, or inner ear. Animals survived for 48 h to allow for an ME infection to develop, which was confirmed by TM visualization. Phages were then applied to the external TM surface in vivo for one hour in 10^9 PFUs ([…] forming units) in 10 μL of PBS, ensuring the entire surface of the membrane was covered.
For confocal microscopy, TMT3 and WT phages were employed. The animal was sacrificed, the phage solution removed, and the TM washed 3× with PBS to remove any remaining phage solution, then 2× with acid wash to remove phages bound to the TM, followed by 2× with PBS. The bulla was then dissected and opened, the interior TM surfaces were washed as above, and the TM was fixed in cold 4% PFA overnight. The TM was dissected from the annular bone and additionally washed 2× with PBS, and the manubrium of the malleus carefully removed. The membrane was incubated in tissue-penetration and blocking solution (5% Triton X and 10% fetal bovine serum (FBS) in PBS) for one hour at room temperature. The TMs were again washed 2× in PBS and incubated in primary antibody (M13 anti-phage coat protein, rabbit polyclonal antibody, Invitrogen PA1-26758, 1:100) overnight at 4 °C. TMs were washed 2× in PBS and incubated with a secondary antibody (FITC-labeled anti-rabbit, Jackson Immuno, 711-095-152) previously treated with DyLight 405 stain for enhanced visualization (Jackson Immuno 711-475-152) at 1:100 concentration for three hours at room temperature with light protection. TMs were again washed with PBS 2× and stained with DAPI (Novus NPB2-31156, 1:1000, 30 min at room temperature with light protection). Some TMs were also incubated with Texas Red-X Phalloidin (Invitrogen T7471, F-actin staining) at 1:500 concentration for one and one-half hours at room temperature and light protection to stain actin. After incubations, TMs were washed 2× with PBS and mounted with the external surface uppermost using antifade, hard-mount media (Vectashield, VectaLabs H-1400). Control TMs were exposed for 1 h to PBS in vivo and then identically treated.
The localization of the phage was evaluated via fluorescence confocal microscopy. TMs were imaged on a Leica SP8 Confocal with Lightning-adaptive deconvolution or an Olympus FV1000 Confocal with SIM Scanner, and 60× and 100× image stacks were generated for rendering of stained TMs. Image stacks were post-processed using Velocity high-performance software to generate images. Separate portions of the stacks were used to visualize phages in the external epithelium, the middle fibrous layer, and the inner mucosal epithelium.

tympanic membrane (TM) [2] = experiment: Titer of phage recovered from within the TM (homogenate) after one-hour application to the external TM surface; format: in vivo, Sprague Dawley rats; conditions: 10^9 PFU in 10 μL PBS, six infected rats, PBS and 0.2 M glycine acid wash (pH 2.2), TM homogenized, titered on E. coli, mean of six
Description: Each peptide phage was applied to the external TM surface (10^9 PFU in 10 μL of PBS) of six previously infected rats, ensuring that the entire membrane surface was covered for one hour.

tympanic membrane (TM) [3] = conditions: recovery from ME lumen after one-hour application to external TM surface; cited from earlier work
Description: Each peptide phage was applied to the external TM surface (10^9 PFU in 10 μL of PBS) of six previously infected rats, ensuring that the entire membrane surface was covered for one hour. The phage solution was removed from the ex ...

[4] = NTHi-infected ME, 10^9 PFU in 10 μL PBS, one hour, confocal, ImageJ count

| Sequence | mean number of puncta per cell, external epithelium of the TM ([1]; NTHi-infected ME, 10^9 PFU in 10 μL PBS on external TM surface, one hour, anti-M13 immunolabel, confocal, ImageJ count, s.d. 43.1) | median number of puncta per cell, external epithelium of the TM [1, 4] | median number of puncta per cell, inner mucosal epithelium of the TM [1, 4] | mean number of puncta per cell, inner mucosal epithelium of the TM ([1]; NTHi-infected ME, 10^9 PFU in 10 μL PBS, one hour, confocal, ImageJ count, significantly less than external epithelium (p 0.002)) | phage content of the cells with the highest numbers (mucosal cells comparable to external epithelium) ([1]; one-hour application, confocal, ImageJ count) | presence of phage within TM cells by immunolabeling (in words) ([1]; one-hour incubation on the external canal TM surface, confocal imaging) | phage titer recovered from within the TM (in words) (tympanic membrane (TM) [2]) | trans-TM transport rate (in words) (tympanic membrane (TM) [3]) |
| --- | --- | --- | --- | --- | --- | --- | --- | --- |
| SADSTKTTHLTL [TMT3] | 139.2 puncta per cell | 110 puncta per cell | 23 puncta per cell | 42.9 (s.d. 44.8) puncta per cell | 200–250 puncta/cell | clearly intracellular and are restricted to the cell cytoplasm | higher than that of TMT3 (18)-1 | high transport rate |
| TLSPKMPGGGYW [TMT2] | – | – | – | – | – | – | significantly higher than those of TMT3 | low transport rate |

Reference: article PMC11727143, “Peptide-Mediated Transport Across the Intact Tympanic Membrane Is Intracellular, with the Rate Determined by the Middle Ear Mucosal Epithelium” (Biomolecules, 2024)
